The results in this text go back to paper PMC12663132, “Assessment of cytotoxicity of some synthetic compounds against breast carcinoma spheroids with subsequent analysis of pro-apoptotic and gene expression” (Scientific Reports, 2025).

The term IC50 denotes the concentration that inhibits the measured activity by half.

Series [1] deals with MCF7. The experiment in a line: Cytotoxicity on MCF7 monolayers (MTT assay). Particulars: Homo sapiens, MCF7, 72 h, read-out: Mean of % cytotoxicity ± SD. A general note: Tetrazolium dyes change colour on reduction, which living cells bring about.
Protocol: (§1) Eighty pre-plated synthetic chemical compounds were screened on two human cell lines: MCF7 (ATCC® HTB-22™), a Caucasian breast adenocarcinoma model, and hTERT-RPE-1 (ATCC® CRL-4000™), a normal retinal epithelial cell line immortalized by hTERT telomerase. […] The cells were cultured in DMEM-F12 medium supplemented with L-glutamine and 10% fetal bovine serum, all were purchase from Biowest (Biotechnology company in Nuaillé, France), and maintained in a controlled incubator environment set at 37 °C with 5% CO2 and 95% humidity.
MCF7 cells were seeded in flat-bottom 96-well plates with a concentration of 20,000 cells/well, and were left overnight. The compounds were tested at a final concentration of 50 µM. Doxorubicin was used as a positive control and 0.5% DMSO as a negative control. The treatment duration was 72 h. The cytotoxicity was then assessed using the MTT assay, as described by Mosmann[43].
In series [2] the test system is MCF7 3D spheroids. Nature of the series: Cytotoxicity on MCF7 3D multicellular spheroids (acid phosphatase method). The following applies: for cytotoxicity at 50 µM: MCF7, 120 h, read-out: Mean of % cytotoxicity ± S.D.
Protocol: as §1
3-D spheroid models were generated from MCF7 cancer and hTERT-RPE1 normal cells were seeded at 10,000 and 50,000 cells/well, respectively, in poly-HEMA coated round bottom plates according to the protocol previously mentioned[44]. The cells were incubated for 5 days to generate the spheroids with diameter of 500 ± 20 µm. The spheroids were imaged using Olympus S100, U-CMAD3 camera connected to Olympus inverted microscope and the diameter of the spheroids was measured using Cellscen-Entry software. Test compounds were added in triplicate to a final concentration of 50 µM and were incubated for 120 h. […] At the end of incubation, cytotoxicity was determined using the acid phosphatase method[45]. After washing twice with 250 μL PBS buffer, 100 μL of 0.1 M sodium citrate, 0.1% Triton X-100, p-nitrophenylphosphate (2 mg/ml) (Pierce Biotechnology Inc., Rockford, IL) was added to each well and incubated for 1.5 h at 37 °C. After incubation, 10 μL of 1N NaOH stop solution was added to each well, and absorbance was read at 405 nm. Cytotoxicity was calculated according to the following equation:
The test system of series [3] is MCF7 cell line. The experiment in a line: Pro-apoptotic activity, M30 Cytodeath ELISA (CK18-Asp396). The format is cell-based, human. The following applies: MCF7 monolayers, 50 µM, 24 h. As to the method: The pro-apoptotic activity is measured as fold increase of the spontaneous apoptosis occurred in the DMSO treated negative control ± standard deviation.
The cutoff was determined as fourfold increase in the apoptosis signal of the negative control.
The accumulation of CK18-Asp396 in treated MCF7 cell cultures was quantified using the M-30 Cytodeath® ELISA kit according to the manufacturer’s instructions. Briefly, the MCF7 cell line monolayers were exposed to the chemical compounds at a concentration of 50 µM. Following 24 h of incubation, the culture medium was supplemented with 0.1% NP40. Subsequently, aliquots of 25 µL from each well, containing CK18 released into the medium from attached and floating cells and cell fragments, were subjected to the ELISA assay. Cleaved CK18 levels were determined by measuring the absorbance at 450 nm[46].
(An ELISA detects its analyte on a solid surface through an enzyme-linked reagent.)

Series [4] relates to MCF7 breast cancer cells. Nature of the series: Gene expression profiling by real-time PCR (p53, Bax, Bcl-2, IL-6, TNF-alpha, MMP1). It is filed as cell-based, human. The following applies: MCF7, IC50 concentration, 24 h, qRT-PCR. The procedure: Total RNA was extracted from both control and treated cells using the RNeasy kit. Up to one million cells were subjected to disruption in Buffer RLT, homogenization, and ethanol treatment to promote selective binding of RNA to the RNeasy membrane. High-purity RNA was subsequently eluted using RNase-free water. All binding, washing, and elution steps were performed using centrifugation in a micro-centrifuge. The sample was then applied to an RNeasy Mini spin column, enabling total RNA retention on the membrane while contaminants were efficiently eliminated. The RNA was then used as a template for real-time PCR to quantify the mRNA levels of genes. Two sets of primers were used—one for the IL-6, TNF-alpha, MMP1, p53, Bcl-2, and Bax genes and another for the endogenous control gene, β-actin (Table 6). The real-time PCR reaction was carried out with the following cycling conditions: 50 °C for 45 min (cDNA synthesis), followed by 40 cycles of 95 °C for 10 s and 60 °C for 60 s. A negative control was included to ensure primer specificity and rule out contamination. Finally, the statistical analysis of the expression of the genes was performed using one-way ANOVA followed by the Tukey–Kramer post-test.
Background: Quantitative PCR measures a nucleic acid by following its amplification.

Series [5] has as its system hTERT-RPE1 3D spheroids. Nature of the series: Cytotoxicity on normal RPE1 3D spheroids (acid phosphatase method). The format is cell-based, human. The following applies: 120 h. As to the method:
These cell lines were generously provided by Prof. Stig Linder, Karolinska Institute (Sweden).
Cytotoxicity was calculated according to the following equation: […]

Where [6] appears, read: Homo sapiens, MCF7, read-out: IC50 (µM) for MCF7 ± SD, MCF7 3D spheroids.
[7] abbreviates: read-out: IC50 (µM) for MCF7 ± SD, MCF7 3D spheroids.

Read-outs that look alike come from different tables or passages of the source. A value given as a limit tells only on which side of the number the result lay.

Turning to `Cc1cccc(C)c1NC(=O)COC(=S)c1sc2ccccc2c1Cl` [A07, 2-(2,6-dimethylanilino)-2-oxoethyl 3-chlorobenzo[b] thiophene-2-carbothioate], the results for the cytotoxicity at 50 µM in series [1] and in series [2] (Homo sapiens) were 36.5 ± 1.2% and 75.1 ± 0.53%, respectively. The half-inhibitory concentration (IC50) in series [2] (setting [6]) worked out at 31.7 ± 1.2 µM. In addition, the “Fold increase (apoptosis signal vs DMSO negative control)” value (from here on “Fold increase”) in series [3] was determined as 3.64 fold.
In the case of `Nc1ccccc1SCC=CCSc1ccccc1N` [C02, 2-({4-[(2-aminophenyl)thio]but-2-enyl}thio)aniline], the values for the cytotoxicity at 50 µM in series [1] and in series [2] (Homo sapiens) were 100 ± 0.003% and 87.3 ± 4.5%, respectively. In addition, the “Expression of apoptosis-related genes (Bax, P53, Bcl-2)” value (from here on “Expression of apoptosis-related genes”) in series [4] is “moderate pro-apoptotic effect compared to the positive control”. For the same compound, the half-inhibitory concentration (IC50) in series [2] (setting [6]) is < 26 µM; in series [2] (setting [7]), 25.3 ± 1.2 µM. Also, the “Cytotoxic effect% ± SD RPE1(50µM)” value in series [5] was determined as 18.3 ± 0.4%.
Turning to `O=C(NCCc1c[nH]c2ccccc12)Nc1ccc(Cl)cc1` [D08, N-(4-chlorophenyl)-N'-[2-(1H-indol-3-yl)ethyl]urea], the cytotoxicity at 50 µM in series [1] is 97.7 ± 0.47%; in series [2] (Homo sapiens), 74 ± 2.9%. Further, in series [2] (setting [6]), the IC50 came to 36.9 ± 0.6 µM. Moreover, the “Cytotoxic effect% ± SD RPE1(50µM)” value in series [5] worked out at 39.4 ± 1%. In addition, in series [3], the “Fold increase” value came to 2.14 fold.
On to `CCOC(=O)c1c(NS(=O)(=O)c2cccc3nsnc23)sc(C)c1C` [F03, ethyl 2-[(2,1,3-benzothiadiazol-4-ylsulfonyl)amino]-4,5-dimethylthiophene-3-carboxylate], for which the results for the cytotoxicity at 50 µM in series [1] and in series [2] (Homo sapiens) were 70 ± 4% and 91.5 ± 0.5%, respectively. In addition, the “Expression of apoptosis-related genes” value in series [4] was “moderate pro-apoptotic effect compared to the positive control”. Moreover, the IC50 is < 26 µM in series [2] (setting [6]) and 18.8 ± 1.3 µM in series [2] (setting [7]). The “Cytotoxic effect% ± SD RPE1(50µM)” value in series [5] worked out at 34.4 ± 2.3%.
For the compound `COc1ccc(OCCC(=O)NNC(=S)Nc2cc(Cl)ccc2Cl)cc1` [F06, N1-(2,5-dichlorophenyl)-2-[3-(4-methoxyphenoxy)propanoyl]hydrazine-1-carbothioamide], the results for the cytotoxicity at 50 µM in series [1] and in series [2] (Homo sapiens) were 80.1 ± 1.7% and 88 ± 2.5%, respectively. Moreover, in series [4], the “Expression of apoptosis-related genes” value was “greater ability to downregulate Bcl-2 while upregulating both P53 and Bax expression compared to the other compounds”. The IC50 in series [2] (setting [6]) is < 26 µM; in series [2] (setting [7]) it was 24.8 ± 0.6 µM. For the same compound, the “Cytotoxic effect% ± SD RPE1(50µM)” value in series [5] is on record as 18.4 ± 0.5%.
Consider `ON=Cc1ccc(-c2ccccc2OC(F)(F)F)o1` [G10, 5-[2-(trifluoromethoxy)phenyl]-2-furaldehyde oxime], for which the values for the cytotoxicity at 50 µM in series [1] and in series [2] (Homo sapiens) were 100 ± 0.003% and 54.4 ± 1.2%, respectively.
For `CC(=O)Nc1ccc(C=C(C#N)C(N)=O)cc1` [G11, 3-[4-(acetylamino)phenyl]-2-cyanoacrylamide], in that order: 15.6 ± 1.7% and 60.8 ± 1.23%.
For `Clc1ccc(OCCCCCCCCCCOc2ccc(Cl)cc2)cc1` [H02, 1,10-bis(4-chlorophenoxy)decane], in that order: 68.7 ± 2.7% and 3.5 ± 0.8%.
For `Cc1ccc2[nH]c(SCC(=O)NC3Cc4ccccc4C3)nc2c1` [H03, N-(2,3-dihydro-1H-inden-2-yl)-2-[(5-methyl-1H-benzimidazol-2-yl)thio]acetamide], in that order: 88.5 ± 5.8% and 15.8 ± 0.11%.
Regarding `O=C(Nc1ccc2c(c1)COCO2)c1cc2ccccc2oc1=O` [H04, N3-(4H-1,3-benzodioxin-6-yl)-2-oxo-2H-chromene-3-carboxamide], the results for the cytotoxicity at 50 µM in series [1] and in series [2] (Homo sapiens) were 46 ± 0.8% and 28 ± 0.6%, respectively.
For the compound `CS(=O)(=O)CC(N)=S` [H05, 2-(methylsulfonyl)ethanethioamide], the cytotoxicity at 50 µM in series [1] was found to be 24.1 ± 1.17%; in series [2] (Homo sapiens), 19.3 ± 0.5%.
Take `O=C(O)c1ccc(-c2ccsc2)cc1` [H06, 4-(3-thienyl)benzoic acid]: the cytotoxicity at 50 µM in series [1] is 7.8 ± 0.23%; in series [2] (Homo sapiens), 26.1 ± 0.4%.
The corresponding values for `Cc1cc(Br)c(NC(=O)C(Cl)Cl)c(Br)c1` [H07, N1-(2,6-dibromo-4-methylphenyl)-2,2dichloroacetamide] are 65.3 ± 2.3% and 40.6 ± 0.7%.
The corresponding values for `CC(C)N1CC(COc2ccc(Br)cc2)OC1=O` (centres unmarked) [H08, 5-[(4-bromophenoxy)methyl]-3-isopropyl-1,3-oxazolan-2-one] are 18 ± 2.23% and 49 ± 1.4%.
As for `COC(=O)c1cc(C=C(C#N)C#N)c(OC)cc1OC` [H09, methyl 5-(2,2-dicyanovinyl)-2,4-dimethoxybenzoate], the cytotoxicity at 50 µM in series [1] stood at 86.2 ± 1.7%; in series [2] (Homo sapiens) it was 80.8 ± 0.77%. For the same compound, the IC50 in series [2] (setting [6]) is 41.2 ± 0.83 µM. For the same compound, in series [5], the “Cytotoxic effect% ± SD RPE1(50µM)” value turned out to be 41.2 ± 1.6%. Besides, the “Fold increase” value in series [3] came to 2.56 fold.
For the compound `CCOC(=O)N1CCC(=NNc2ccc([N+](=O)[O-])cc2[N+](=O)[O-])CC1` [H10, ethyl 4-[2-(2,4-dinitrophenyl)hydrazono]piperidine-1-carboxylate], the cytotoxicity at 50 µM in series [1] is 27.5 ± 1.4%; in series [2] (Homo sapiens), 60.6 ± 1.1%.
The corresponding values for `FC(F)(F)c1ccnc(NCc2ccco2)n1` [H11, N2-(2-furylmethyl)-4-(trifluoromethyl)pyrimidin-2-amine] are 0% and 68.5 ± 0.65%.
On to `N.N.[Cl][Pt][Cl]` [cisplatin, reference compound], for which the “Expression of inflammatory markers (IL-6, TNFα, MMP1)” value in series [4] is recorded as “milder pro-inflammatory effects compared to the tested three compounds”. In series [2] (setting [7]), the half-maximal inhibitory concentration (IC50) came out at 31.7 ± 1.5 µM.
